Entries after “also recorded” stand apart in the source; their conditions may differ.
How the values were obtained:
Assay type in all cases: in vivo
[1] = test system: strawberries on the plant; test: Effect of CAD injection on strawberry fruit ripening; settings: for strawberry appearance (colour), FIG. 4A: 8 DAT; for strawberry appearance (colour), FIG. 4A / strawberry appearance (colour), FIG. 4B / strawberry appearance (colour), FIG. 4C / strawberry appearance (colour), FIG. 4D / strawberry appearance (colour), FIG. 4E / strawberry appearance (colour), FIG. 4F: 7 day old fruit, 10 μM CAD or 200 μM ABA in 0.1% TRITON-X100, injected; for strawberry appearance (colour), FIG. 4B: 9 DAT; for strawberry appearance (colour), FIG. 4C: 10 DAT; for strawberry appearance (colour), FIG. 4D: 11 DAT; for strawberry appearance (colour), FIG. 4E: 12 DAT; for strawberry appearance (colour), FIG. 4F: 13 DAT
Procedure: While still on the plant, strawberries were injected with either 10 μM CAD in 0.1% TRITON-X 100 surfactant; 200 μM ABA in 0.1% TRITON-X 100 surfactant; or 0.1% TRITON-X 100 surfactant. The strawberries were allowed to remain on the plant, and removed and photographed at 8 DAT, 9 DAT, 10 DAT, 11 DAT, 12 DAT, and 13 DAT. FIG. 4A to FIG. 4F depict images of strawberries treated with either 10 μM CAD in 0.1% TRITON-X 100 surfactant; 200 μM ABA in 0.1% TRITON-X 100 surfactant; or 0.1% TRITON-X 100 surfactant alone (mock); or no treatment.

[2] = test system: Cherry tomato fruits at mature green stage; test: Treatment of cherry tomatoes by injection: fruit ripening; settings: for cherry tomato appearance (colour), FIG. 3B / FIG. 3D: 6 DAT, injected with 10 μM CAD or 200 μM ABA in 0.1% TRITON-X100; for cherry tomato ripening stage: six days after treatment, injected with 50 μM CAD or 200 μM ABA in 0.1% TRITON X-100
Procedure: Cherry tomato fruits at mature green stage were purchased from Butler's Orchard (Germantown, Maryland, USA). Each fruit was injected with either 50 μM CAD in 0.1% TRITON X-100 surfactant; 200 μM ABA in 0.1% TRITON X-100 surfactant; or buffer alone (0.1% TRITON X-100 surfactant). […] FIG. 3A and FIG. 3B show images of cherry tomatoes injected with 10 μM CAD. FIG. 3C and FIG. 3D show images of cherry tomatoes injected with 200 μM ABA. FIG. 3E and FIG. 3F show images of cherry tomatoes injected with buffer alone. FIG. 3G and FIG. 3H show images of untreated tomatoes. FIG. 3A; FIG. 3C; FIG. 3E; and FIG. 3G show images taken the day of treatment. FIG. 3B; FIG. 3D; […]; and FIG. 3H show images taken 6 DAT.

[3] = test system: Strawberry fruit (Fragaria x ananassa CV. Albion); test: Treatment of strawberry fruit by dipping: fruit ripening; settings: for strawberry fruit ripening compared to mock-treated strawberries: 10 μM CAD or 1 mM ABA in 0.1% TRITON X-100, dipped 20 seconds eight days after pollination; for strawberry appearance (colour), FIG. 2A: 7 DAT; for strawberry appearance (colour), FIG. 2A / strawberry appearance (colour), FIG. 2B / strawberry appearance (colour), FIG. 2C / strawberry appearance (colour), FIG. 2D / strawberry appearance (colour), FIG. 2E / strawberry appearance (colour), FIG. 2F: 8 day old fruit, 10 μM CAD or 1 mM ABA in 0.1% TRITON-X100; for strawberry appearance (colour), FIG. 2B: 8 DAT; for strawberry appearance (colour), FIG. 2C: 9 DAT; for strawberry appearance (colour), FIG. 2D: 10 DAT; for strawberry appearance (colour), FIG. 2E: 11 DAT; for strawberry appearance (colour), FIG. 2F: 12 DAT
Procedure: Strawberry plants (Fragaria x ananassa CV. Albion) were grown in a greenhouse at 28° C. and 14-hour light/10-hour dark conditions. […] Fruits were allowed to continue growing on the plants. FIG. 1 depicts images of strawberry fruit development under standard conditions.
FIG. 2A to FIG. 2F depict images of strawberries treated with either 10 μM CAD in 0.1% TRITON X-100 surfactant; 1 mM ABA in 0.1% TRITON X-100 surfactant; or buffer (0.1% TRITON X-100 surfactant) without chemical (mock-treated). […] The CAD dosage was lower than that of ABA (10 μM vs. 1 mM), and CAD stimulated fruit ripening faster than did ABA. […] In contrast, ABA-treated fruit started to turn red 9 DAT, and reached full red 11 DAT.

strawberry fruit = test: CAD analogs: ability to hasten strawberry fruit ripening; settings: 50 μM in 0.1% TRITON-X 100, applied at the same timing as CAD; compared with CAD
Procedure: Chemicals with similarity to CAD were tested for their ability to hasten fruit ripening.
To the inventors' knowledge, no chemical closely related to CAD is currently commercially available. A few analogs with 88-90% similarity to CAD were found in the ChemBridge database used in Example 1.
This compound has 90% similarity to CAD.

[4] = test system: Strawberry seeds (Fragaria x ananassa CV. Albion); test: Chemical library screening for delaying strawberry seed germination; settings: about 5 μM chemical in 0.1% TRITON X-100; strawberry seeds in 96 well plates, 25° C., vs non-treated or mock-treated seeds
Procedure: A chemical library containing 10,000 small compounds (˜300 Dalton) was purchased from ChemBridge Co (San Diego, California, USA). Strawberry seeds (Fragaria x ananassa CV. Albion) were purchased from Johnny's Seeds (Fairfield, Maine, USA). Five to six seeds were sterilized with 70% ethanol and added to each well of 96 well ELISA plates containing about 5 μM chemical 0.1% TRITON X-100 surfactant (polyethylene glycol tert-octylphenyl ether). One mM abscisic acid (ABA), a hormone that inhibits seed germination, and gibberellic acid (GA3), a hormone that promotes seed germination, were used as controls. Each experiment was conducted in triplicate. Plates were kept in a growth chamber at 25° C. under dark, and a 14 hour light/10 hour dark cycle was added after seed germination was observed.

[5] = 10 μM CAD or 1 mM ABA in 0.1% TRITON X-100, dipped eight days after pollination, days after treatment

| SMILES | strawberry appearance (colour), FIG. 4A [1] | strawberry appearance (colour), FIG. 4B [1] | strawberry appearance (colour), FIG. 4C [1] | strawberry appearance (colour), FIG. 4D [1] | strawberry appearance (colour), FIG. 4E [1] | strawberry appearance (colour), FIG. 4F [1] | cherry tomato appearance (colour), FIG. 3B / FIG. 3D [2] | cherry tomato ripening stage [2] | strawberry fruit ripening compared to mock-treated strawberries [3] | fruit reached full red [3, 5] [DAT] | strawberry appearance (colour), FIG. 2A [3] | strawberry appearance (colour), FIG. 2B [3] | strawberry appearance (colour), FIG. 2C [3] | strawberry appearance (colour), FIG. 2D [3] | strawberry appearance (colour), FIG. 2E [3] | strawberry appearance (colour), FIG. 2F [3] | effect on strawberry fruit ripening (strawberry fruit) | further results |
| --- | --- | --- | --- | --- | --- | --- | --- | --- | --- | --- | --- | --- | --- | --- | --- | --- | --- | --- |
| CC1=CC(=O)CC(C)(C)[C@@]1(O)/C=C/C(C)=C\C(=O)O [ABA, abscisic acid, reference compound] | white or greenish white | with some pink | pink/red | reddish | red | red with some white at the top | red | fully ripen (red stage) | stimulated strawberry fruit ripening | 11 | white with a greenish tint | white | with more pink | reddish | mostly red | red allover | – | fruit began/started to turn red (start of ripening) [3, 5]: 9 DAT |
| CCc1cccc(C)c1NC(=O)c1ccn(CC)n1 [1-ethyl-N-(2-ethyl-6-methylphenyl)-1H pyrazole-3-carboxamide] | – | – | – | – | – | – | – | – | – | – | – | – | – | – | – | – | no obvious effect on fruit ripening | – |
| CCn1cc(Br)c(C(=O)Nc2ccccc2C(C)(C)C)n1 [4-bromo-N-(2-tert-butylphenyl)-1-ethyl-1H-pyrazole-3-carboxamide] | – | – | – | – | – | – | – | – | – | – | – | – | – | – | – | – | a lower effect on fruit ripening than CAD | – |
| CCc1cc(Br)ccc1NC(=O)c1ccn(CC)n1 [CAD, N-(4-bromo-2-ethylphenyl)-1-ethyl-1H-pyrazole-3-carboxamide] | with a pink tint | mostly light red; also recorded: showed some color | red and ripe | red | bright red | red allover | dark red | fully ripen (red stage) | stimulated strawberry fruit ripening | 9 | white have a pink tint | with pink spots | mostly red | red | red allover | red allover | – | delaying seed germination [4]: can delay seed germination; ripened before strawberries injected with 200 μM ABA ([1]; strawberries injected with 10 μM CAD in TRITON-X100 14 days after pollination): at least two; cherry tomato ripening compared to mock-treated or untreated cherry tomatoes ([2]; CAD injected in 0.1% TRITON X-100): hastening of cherry tomato ripening; also recorded: promoted fruit ripening of climacteric tomatoes |
| CCn1ccc(C(=O)Nc2ccc(Br)cc2)n1 [N-(4-bromophenyl)-1-ethyl-1H-pyrazole-3-carboxamide] | – | – | – | – | – | – | – | – | – | – | – | – | – | – | – | – | has an effect on fruit ripening; also recorded: promoted strawberry fruit ripening, although not as effectively as CAD | – |
